One assay concerns the target T1, S-nitrosoglutathione reductase (GSNOR) (Homo sapiens, UniProt P11766).
T1 construct: made in house; host or cells: E. coli
Kind of assay: GSNOR assay (inhibition of GSNOR activity, NADH absorbance at 340 nm). It counts as biochemical. Conditions: GSNOR inhibitor activity, Tables 1-6; read-out: IC50 range. In outline:
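Recombinant GSNOR purified from E. coli, tag removed. Final conditions: 100 mM NaPO4 pH 7.4, 0.240 mM GSNO, 0.300 mM NADH, 0.5 μg/mL enzyme, 1% DMSO; NADH loss followed as 340 nm absorbance change over 3 min at 25 °C. Compounds 100–0.003 μM, triplicate; IC50 by curve analysis.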
T1 sequence (P11766 whole entry): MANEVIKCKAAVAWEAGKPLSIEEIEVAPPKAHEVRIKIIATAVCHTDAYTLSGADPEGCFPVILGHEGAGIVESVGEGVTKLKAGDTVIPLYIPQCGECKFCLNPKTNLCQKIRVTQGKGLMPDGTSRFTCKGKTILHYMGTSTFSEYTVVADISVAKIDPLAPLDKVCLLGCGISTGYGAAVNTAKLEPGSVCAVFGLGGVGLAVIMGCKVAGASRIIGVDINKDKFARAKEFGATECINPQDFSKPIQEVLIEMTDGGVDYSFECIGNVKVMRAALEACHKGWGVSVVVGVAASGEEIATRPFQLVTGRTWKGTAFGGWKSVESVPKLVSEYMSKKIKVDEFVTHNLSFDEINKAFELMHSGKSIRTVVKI
As a reminder, the IC50 is the concentration that inhibits the measured activity by half. Consider `O=[N+]([O-])c1cc(-c2ccc3cc(O)ccc3n2)ccc1O` [Compound I-61, 2-(4-hydroxy-3-nitrophenyl)quinolin-6-ol], for which the half-maximal inhibitory concentration (IC50) was in the range of 1000 to 10000 nM.
Turning to `COc1cc(C(=O)O)ccc1-c1ccc2cc(O)ccc2c1` [III-3], the concentration for half-maximal inhibition (IC50) is under 100 nM.
For the molecule `Cc1cc(C(=O)O)ccc1-c1cc(F)c2c(F)c(O)ccc2c1` [III-41, 4-(4,5-difluoro-6-hydroxynaphthalen-2-yl)-3-methylbenzoic acid], the IC50 was under 100 nM.
On the same count and under the same terms, to `O=C(O)c1ccc(-c2ccc3cc(O)ccc3c2F)cc1` [III-26, 4-(1-fluoro-6-hydroxynaphthalen-2-yl)benzoic acid] belongs under 100 nM.
Same read-out and setting: next, `O=c1nc(-c2ccc(-c3ccc4cc(O)ccc4n3)cc2)o[nH]1` [Compound I-34]: 100 to 1000 nM; `Oc1ccc2nc(-c3ccc(-c4nn[nH]n4)cc3)cc(Cl)c2c1` [Compound I-11]: under 100 nM.
On to `O=C(O)c1ccc(Oc2c(C(F)(F)F)oc3cc(O)ccc3c2=S)cc1` [Compound V-4, 4-((7-hydroxy-4-thioxo-2-(trifluoromethyl)-4H-chromen-3-yl)oxy)benzoic acid], for which the IC50 lay in the range of 100 to 1000 nM.
With `O=C(O)c1cnc(-c2ccc3cc(O)ccc3c2)cn1` [III-8], the half-inhibitory concentration (IC50) fell in the range of 100 to 1000 nM.
Regarding `O=c1nc(-c2ccc(-c3ccc4cc(O)ccc4n3)c(F)c2)[nH]o1` [Compound I-21], the IC50 was under 100 nM.
For `O=C(O)c1ccc(-c2c(C(F)(F)F)oc3cc(O)ccc3c2=O)c(Cl)c1` [IV-15], the IC50 is under 100 nM.
In the case of `O=C(O)c1ccc(CS(=O)(=O)c2ccc(O)c(F)c2)c(F)c1` [VI-20, 3-fluoro-4-(((3-fluoro-4-hydroxyphenyl)sulfonyl)methyl)benzoic acid], the IC50 is under 100 nM.
On the same count and under the same terms, next, `Cc1oc2cc(O)ccc2c(=O)c1-c1ccc(C(=O)O)cc1` [IV-5]: 100 to 1000 nM; `CN(c1ccc(C(=O)O)cc1)c1c(C(F)(F)F)oc2cc(O)ccc2c1=O` [Compound V-14, 4-((7-hydroxy-4-oxo-2-(trifluoromethyl)-4H-chromen-3-yl)(methyl)amino)benzoic acid]: 1000 to 10000 nM; `COc1cc(C(=O)O)ccc1-c1cc(F)c2cc(O)ccc2n1` [Compound I-48, 4-(4-fluoro-6-hydroxyquinolin-2-yl)-3-methoxybenzoic acid]: under 100 nM.
The same measure, in the same setting: next, `O=C(O)c1ccc(-c2cc(F)c3c(F)c(O)ccc3c2)cc1` [III-42, 4-(4,5-difluoro-6-hydroxynaphthalen-2-yl)benzoic acid]: under 100 nM; `O=C(O)c1ccc(CC(=O)c2ccc(O)c(F)c2O)c(F)c1` [VI-27, 3-fluoro-4-(2-(3-fluoro-2,4-dihydroxyphenyl)-2-oxoethyl)benzoic acid]: 100 to 1000 nM; `Cc1cc(C(=O)O)ccc1-c1c(C(F)(F)F)oc2cc(O)ccc2c1=O` [IV-43]: under 100 nM.
The same measure, in the same setting: to `O=C(O)c1ccc(/C(=C\C(F)(F)F)C(=O)c2ccc(O)cc2O)cc1` [VI-17, (E)-4-(1-(2,4-dihydroxyphenyl)-4,4,4-trifluoro-1-oxobut-2-en-2-yl)benzoic acid] belongs under 100 nM; to `O=C(O)c1ccc(-c2ccc3cc(O)ccc3n2)c(O)c1` [Compound I-55, 3-hydroxy-4-(6-hydroxyquinolin-2-yl)benzoic acid], under 100 nM; to `O=c1c(C2CCC(c3nn[nH]n3)CC2)c(C(F)(F)F)oc2cc(O)ccc12` (stereo not shown) [IV-36], under 100 nM.
For `O=c1c(-c2ccc(-c3nnn[nH]3)c(Cl)c2)c(C(F)(F)F)oc2cc(O)ccc12` [IV-42], the IC50 is under 100 nM.
Still for that read-out and setting: to `O=C(O)c1ccc(CS(=O)(=O)c2ccc(O)cc2)c(F)c1` [VI-26, 3-fluoro-4-(((4-hydroxyphenyl)sulfonyl)methyl)benzoic acid] belongs under 100 nM; to `O=C(O)c1ccc(-c2ccc3c(F)c(O)ccc3n2)cc1` [Compound I-53, 4-(5-fluoro-6-hydroxyquinolin-2-yl)benzoic acid], under 100 nM; to `O=C(O)c1ccc(-c2nnc3cc(O)ccc3n2)c(F)c1` [II-20], under 100 nM.
Same read-out and setting: next, `Nc1cc(-c2ccc(C(=O)O)cc2)nc2ccc(O)cc12` [Compound I-51, 4-(4-amino-6-hydroxyquinolin-2-yl)benzoic acid]: 1000 to 10000 nM; `O=C(O)c1cnc(-c2ccc3cc(O)ccc3c2)nc1` [III-9]: 100 to 1000 nM.
For the molecule `O=C(O)c1ccc(COc2cc(F)c(O)cc2F)c(F)c1` [VI-22, 4-((2,5-difluoro-4-hydroxyphenoxy)methyl)-3-fluorobenzoic acid], the IC50 lay in the range of 100 to 1000 nM.
Still for that read-out and setting: next, `O=c1c(-c2ccc(-c3nnn[nH]3)cc2)coc2cc(O)ccc12` [IV-44]: under 100 nM; `O=C(O)c1ccc(-c2cc3ccc(O)cc3cc2F)cc1` [III-23, 4-(3-fluoro-6-hydroxynaphthalen-2-yl)benzoic acid]: under 100 nM; `O=C(O)c1ccc(-c2cc(F)c3c(F)c(O)ccc3c2)c(F)c1` [III-40, 4-(4,5-difluoro-6-hydroxynaphthalen-2-yl)-3-fluorobenzoic acid]: under 100 nM.
Still for that read-out and setting: next, `COc1ccc(-c2oc3cc(O)ccc3c(=O)c2Oc2ccc(C(=O)O)cc2)cc1` [Compound V-9, 4-(7-hydroxy-2-(4-methoxyphenyl)-4-oxo-4H-chromen-3-yloxy)benzoic acid]: 1000 to 10000 nM; `CCOc1cc(-c2c(C(F)(F)F)oc3cc(O)ccc3c2=O)cc([N+](=O)[O-])c1O` [IV-46, 3-(3-ethoxy-4-hydroxy-5-nitrophenyl)-7-hydroxy-2-(trifluoromethyl)-4H-chromen-4-one]: under 100 nM; `O=C(O)c1ccc(-c2ccc3cc(O)ccc3n2)cc1O` [Compound I-60, 2-hydroxy-4-(6-hydroxyquinolin-2-yl)benzoic acid]: under 100 nM.
The same measure, in the same setting: to `O=C(O)c1ccc(CC(=O)c2c(F)cc(O)cc2F)c(F)c1` [VI-10, 4-(2-(2,6-difluoro-4-hydroxyphenyl)-2-oxoethyl)-3-fluorobenzoic acid] belongs 100 to 1000 nM.
For the molecule `Oc1ccc2nc(-c3ccc(-c4nn[nH]n4)cc3Cl)ccc2c1` [Compound I-23], the IC50 is under 100 nM.
The same measure, in the same setting: next, `O=C(O)c1ccc(-c2ccc3cc(O)ccc3c2)nn1` [III-11]: 1000 to 10000 nM.
On the same count and under the same terms, next, `O=C(O)c1ccc(CCC(=O)c2ccc(O)cc2)cc1` [VI-30, 4-(3-(4-hydroxyphenyl)-3-oxopropyl)benzoic acid]: 1000 to 10000 nM; `COCc1oc2cc(O)ccc2c(=O)c1-c1ccc(C(=O)O)cc1` [IV-2]: 100 to 1000 nM; `CC(F)(F)c1oc2cc(O)ccc2c(=O)c1-c1ccc(C(=O)O)cc1` [IV-16]: under 100 nM.
For `O=C(O)C1CCC(c2ccc3cc(O)ccc3n2)CC1` (stereo not shown) [Compound I-6], the IC50 fell in the range of 100 to 1000 nM.
Same read-out and setting: next, `O=C(O)c1ccc(CC(=O)c2cc(F)c(O)cc2F)c(F)c1` [VI-7, 4-(2-(2,5-difluoro-4-hydroxyphenyl)-2-oxoethyl)-3-fluorobenzoic acid]: 100 to 1000 nM; `O=C(O)c1ccc(-c2ccc3c(F)c(O)ccc3n2)c(Cl)c1` [Compound I-57]: under 100 nM.
Still for that read-out and setting: to `O=C(O)c1ccc(NC(=O)c2ccc(O)cc2C(F)(F)F)cc1` [VI-14, 4-(4-hydroxy-2-(trifluoromethyl)benzamido)benzoic acid] belongs 100 to 1000 nM.
Same read-out and setting: to `O=c1[nH]nc(-c2ccc(-c3ccc4cc(O)ccc4n3)cc2)s1` [Compound I-33] belongs 100 to 1000 nM.

The assay is the same for the next values; noted with them: Table 7; GSNOR inhibition, IC50 range class a/b/c; read-out: IC50.
With `O=C(O)c1ccc(-c2cnc(-c3ccc(O)c(F)c3)s2)s1` [VII-10, 5-(2-(3-fluoro-4-hydroxyphenyl)thiazol-5-yl)thiophene-2-carboxylic acid], the IC50 was under 100 nM.
In the case of `CC(C)CCn1c(-c2ccc(O)cc2)ccc1-c1ccc(C(=O)O)cc1` [VII-28, 4-(5-(4-hydroxyphenyl)-1-isopentyl-1H-pyrrol-2-yl)benzoic acid], the concentration for half-maximal inhibition (IC50) was under 100 nM.
Still for that read-out and setting: next, `O=C(O)c1ccc(-c2ccc(-c3ccc(O)c(F)c3)s2)s1` [VII-17, 5′-(3-fluoro-4-hydroxyphenyl)-[2,2′-bithiophene]-5-carboxylic acid]: under 100 nM; `CC(C)OCCCn1c(-c2ccc(O)cc2)ccc1-c1ccc(C(=O)O)cc1` [VII-31, 4-(5-(4-hydroxyphenyl)-1-(3-isopropoxypropyl)-1H-pyrrol-2-yl)benzoic acid]: under 100 nM.
In the case of `O=C(O)c1ccc(-c2csc(-c3ccc(O)c(F)c3)n2)cc1` [VII-6, 4-(2-(3-fluoro-4-hydroxyphenyl)thiazol-4-yl)benzoic acid], the IC50 was in the range of 100 to 1000 nM.
Still for that read-out and setting: to `O=C(O)c1ccc(-c2csc(-c3ccc(O)cc3)n2)cc1` [VII-2, 4-(2-(4-hydroxyphenyl)thiazol-4-yl)benzoic acid] belongs 100 to 1000 nM.
Same read-out and setting: next, `O=C(O)c1cccc(-c2csc(-c3ccc(O)c(F)c3)n2)c1` [VII-5, 3-(2-(3-fluoro-4-hydroxyphenyl)thiazol-4-yl)benzoic acid]: 100 to 1000 nM.

Staying with this assay, now noted: Table 8; GSNOR inhibition, IC50 range class a/b/c; read-out: IC50.
Turning to `O=C(O)c1ccc(-c2nc3ccc(O)cc3s2)cc1` [VIII-7, 4-(6-hydroxybenzo[d]thiazol-2-yl)benzoic acid], the IC50 fell in the range of 100 to 1000 nM.
As for `Cn1c(-c2ccc(C(=O)O)cc2)nc2ccc(O)cc2c1=O` [VIII-10, 4-(6-hydroxy-3-methyl-4-oxo-3,4-dihydroquinazolin-2-yl)benzoic acid], the IC50 is under 100 nM.
On to `Cn1c(-c2ccc(C(=O)O)cc2)cc2ccc(O)cc2c1=O` [VIII-11, 4-(7-hydroxy-2-methyl-1-oxo-1,2-dihydroisoquinolin-3-yl)benzoic acid], for which the IC50 lay within 100 to 1000 nM.
In the case of `Cc1cc2cc(O)ccc2c(=O)n1[C@H]1CC[C@H](C(=O)O)CC1` [VIII-12, (trans)-4-(6-hydroxy-3-methyl-1-oxoisoquinolin-2(1H)-yl)cyclohexanecarboxylic acid], the IC50 is 100 to 1000 nM.
